How the values were obtained:
[1] = target: T1, Avi-KRAS WT (1-169) GppNHp/RAF1 RBD-3xFLAG (52-151) (Homo sapiens, UniProt P01116); assay: Raf1-KRAS WT-GppNHP disruption HTRF assay (Biological Example 1); assay type: binding
T1 construct: Avi-KRAS WT (1-169)
Outline: (§1)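 HTRF PPI disruption; buffer 50 mM Tris pH 7.5, 100 mM NaCl, 5 mM MgCl2, 0.1% BSA, 0.01% Tween, 10% DMSO. Protein mix 1 h RT shaking, reagent mix 1 h RT shaking. Data as % activity vs DMSO (100%).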

[2] = target: T2, Avi-KRAS G12V (1-169) GppNHp/RAF1 RBD-3xFLAG (52-151) (Homo sapiens, UniProt P01116, G12V); assay: Raf1-KRAS G12V-GppNHP disruption HTRF assay (Biological Example 1); assay type: binding
T2 construct: Avi-KRAS G12V (1-169)
Outline: as §1

[3] = target: T3, Avi-KRAS G12D (1-169) GppNHp/RAF1 RBD-3xFLAG (52-151) (Homo sapiens, UniProt P01116, G12D); assay: Raf1-KRAS G12D-GppNHP disruption HTRF assay (Biological Example 1); assay type: binding
T3 construct: Avi-KRAS G12D (1-169)
Outline: as §1

GP2d cells (KRAS G12D) = assay: Cell-based pERK HTRF assay in GP2d cell (Biological Example 2); settings: GP2d, GP2d (KRAS G12D) cells, pERK HTRF
Outline: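 Phospho-ERK in lysed cells was detected by HTRF using Eu cryptate and d2 antibodies, read between 4 and 24 h at room temperature. Prior to lysis, KRAS G12D GP2d cells, seeded the day before in DMEM with 10% FBS, were exposed to compounds for 60 min. Compounds were tested as 9-point half-log curves from 1 μM or 100 nM top, with 0.25% DMSO.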

SW620 cells (KRAS G12V) = assay: Cell-based pERK HTRF assay in SW620 cell (Biological Example 4); settings: Homo sapiens, SW-620, SW620 (KRAS G12V) cells, pERK HTRF
Outline: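 Read-out: HTRF pERK signal (excitation 320 nm, emission 615 nm) from lysates of SW620 cells after 4 h compound exposure. Dose range was 9 points, half-log steps from 1 μM, in 0.25% DMSO; antibody incubation ran 4–24 h at room temperature.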

[4] = target: T4, Avi-KRAS G12R (1-169) GppNHp/RAF1 RBD-3xFLAG (52-151) (Homo sapiens, UniProt P01116, G12R); assay: Raf1-KRAS G12R-GppNHP disruption HTRF assay (Biological Example 1); assay type: binding
T4 construct: Avi-KRAS G12R (1-169)
Outline: as §1

[5] = KRAS WT, GppNHp-loaded, Table 11
[6] = KRAS G12V, GppNHp-loaded, Table 11
[7] = KRAS G12D, GppNHp-loaded, Table 11
[8] = KRAS G12R, GppNHp-loaded, Table 11
[9] = KRAS WT, GppNHp-loaded, class symbols
[10] = KRAS G12V, GppNHp-loaded, class symbols
[11] = KRAS G12D, GppNHp-loaded, class symbols
[12] = KRAS G12R, GppNHp-loaded, class symbols

T2 sequence (P01116 1-169 isoform P01116-2 G12V): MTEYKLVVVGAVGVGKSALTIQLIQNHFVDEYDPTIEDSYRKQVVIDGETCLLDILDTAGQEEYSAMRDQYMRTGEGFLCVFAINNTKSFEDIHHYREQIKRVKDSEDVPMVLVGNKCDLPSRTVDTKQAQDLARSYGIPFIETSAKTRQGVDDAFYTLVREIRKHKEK
T4 sequence (P01116 1-169 isoform P01116-2 G12R): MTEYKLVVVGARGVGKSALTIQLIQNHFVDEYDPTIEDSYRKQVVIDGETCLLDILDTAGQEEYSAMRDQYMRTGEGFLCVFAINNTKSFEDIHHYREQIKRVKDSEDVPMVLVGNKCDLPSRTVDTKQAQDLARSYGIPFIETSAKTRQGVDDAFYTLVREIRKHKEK
T1 sequence (P01116 1-169 isoform P01116-2): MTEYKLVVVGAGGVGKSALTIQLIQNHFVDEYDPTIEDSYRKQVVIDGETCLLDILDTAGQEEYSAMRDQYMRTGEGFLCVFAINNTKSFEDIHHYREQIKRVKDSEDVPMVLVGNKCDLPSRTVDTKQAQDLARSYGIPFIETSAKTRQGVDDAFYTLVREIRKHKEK
T3 sequence (P01116 1-169 isoform P01116-2 G12D): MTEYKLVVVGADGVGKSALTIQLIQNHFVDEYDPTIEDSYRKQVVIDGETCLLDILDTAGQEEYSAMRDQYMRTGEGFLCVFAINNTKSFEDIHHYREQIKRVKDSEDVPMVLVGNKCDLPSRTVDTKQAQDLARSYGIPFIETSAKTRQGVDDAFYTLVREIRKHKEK

Row | Compound | IC50 ([1]; KRAS WT-GppNHp/RAF1 RBD HTRF) | IC50 ([2]; KRAS G12V-GppNHp/RAF1 RBD HTRF) | IC50 ([3]; KRAS G12D-GppNHp/RAF1 RBD HTRF) | IC50 (GP2d cells (KRAS G12D)) | IC50 (SW620 cells (KRAS G12V)) | IC50 ([4]; KRAS G12R-GppNHp/RAF1 RBD HTRF) | IC50 [1, 5] | IC50 [2, 6] | IC50 [3, 7] | IC50 [4, 8] | IC50 [1, 9] | IC50 [2, 10] | IC50 [3, 11] | IC50 (GP2d cells (KRAS G12D); class symbols) | IC50 (SW620 cells (KRAS G12V); class symbols) | IC50 [4, 12]
1 | N#Cc1c(N)sc2c(F)ccc(-c3c(C(F)(F)F)cc4c(N5CCS(=N)(=O)CC5)nc(OC[C@@]56CCCN5C[C@H](F)C6)nc4c3F)c12 [Compound 297] | 100 to 1000 nM | 100 to 1000 nM | 100 to 1000 nM | < 100 nM | < 100 nM | 100 to 1000 nM | – | – | – | – | – | – | – | – | – | –
2 | CC(C)(O)[C@H]1CCN1c1nc(OC[C@@]23CCCN2C[C@H](F)C3)nc2c(F)c(-c3ccc(F)c4sc(N)c(C#N)c34)c(C(F)(F)F)cc12 [Compound 269] | – | – | – | < 100 nM | 100 to 1000 nM | – | 100 to 1000 nM | 1000 to 10000 nM | 100 to 1000 nM | 100 to 1000 nM | – | – | – | – | – | –
3 | CN1C[C@@H](N(C)c2nc(OC[C@@]34CCCN3C[C@H](F)C4)nc3c(F)c(-c4ccc(F)c5sc(N)c(C#N)c45)c(C(F)(F)F)cc23)CCC1=O [Compound 478] | 100 to 1000 nM | 1000 to 10000 nM | 100 to 1000 nM | < 100 nM | < 100 nM | 1000 to 10000 nM | – | – | – | – | – | – | – | – | – | –
4 | CCN(c1nc(OC[C@@]23CCCN2C[C@H](F)C3)nc2c(F)c(-c3ccc(F)c4sc(N)c(C#N)c34)c(C(F)(F)F)cc12)[C@@H]1CCN(C(=O)[C@H]2CCO2)[C@@H]1C (atropisomer, axis not shown) [Compound 788] | – | – | – | – | – | – | – | – | – | – | < 100 nM | < 100 nM | < 100 nM | < 100 nM | < 100 nM | < 100 nM
5 | C[C@H]1N(C(=O)C2CC2)CC[C@@]1(C)N(C)c1nc(OC[C@@]23CCCN2C[C@H](F)C3)nc2c(F)c(-c3ccc(F)c4sc(N)c(C#N)c34)c(C(F)(F)F)cc12 [Compound 344] | 100 to 1000 nM | 1000 to 10000 nM | 1000 to 10000 nM | < 100 nM | 100 to 1000 nM | > 10000 nM | – | – | – | – | – | – | – | – | – | –
6 | CCN(c1nc(OC[C@@]23CCCN2C[C@H](F)C3)nc2c(F)c(-c3ccc(F)c4sc(N)c(C#N)c34)c(C(F)(F)F)cc12)[C@H]1CCN(C(=O)c2ccn(C)n2)C1 (atropisomer, axis not shown) [Compound 724] | – | – | – | – | – | – | – | – | – | – | < 100 nM | < 100 nM | < 100 nM | < 100 nM | < 100 nM | < 100 nM
7 | COC[C@H]1CCN1c1nc(OC[C@@]23CCCN2C[C@H](F)C3)nc2c(F)c(-c3ccc(F)c4sc(N)c(C#N)c34)c(C(F)(F)F)cc12 [Compound 270] | – | – | – | 100 to 1000 nM | 100 to 1000 nM | – | 100 to 1000 nM | 100 to 1000 nM | 100 to 1000 nM | 100 to 1000 nM | – | – | – | – | – | –
8 | CC(=O)N1CC[C@@H]2[C@H]1CN2c1nc(OC[C@@]23CCCN2C[C@H](F)C3)nc2c(F)c(-c3ccc(F)c4sc(N)c(C#N)c34)c(C(F)(F)F)cc12 [Compound 514] | 100 to 1000 nM | 100 to 1000 nM | 100 to 1000 nM | < 100 nM | < 100 nM | 100 to 1000 nM | – | – | – | – | – | – | – | – | – | –
9 | C[C@@H]1[C@H](N(C)c2nc(OC[C@]34C[C@@H](F)CN3CC3(CC3)C4)nc3c(F)c(-c4ccc(F)c5sc(N)c(C#N)c45)c(Cl)cc23)CCN1C(=O)C1CC1 [Compound 593] | – | – | – | – | – | – | – | – | – | – | 1000 to 10000 nM | 1000 to 10000 nM | 1000 to 10000 nM | 100 to 1000 nM | 100 to 1000 nM | 1000 to 10000 nM
10 | CCN(c1nc(OC[C@@]23CCCN2C[C@H](F)C3)nc2c(F)c(-c3ccc(F)c4sc(N)c(C#N)c34)c(C(F)(F)F)cc12)[C@H]1CCN(C(=O)C2C[C@@H]2C)C1 (stereo partly drawn) [Compound 604] | – | – | – | – | – | – | – | – | – | – | < 100 nM | < 100 nM | < 100 nM | < 100 nM | < 100 nM | < 100 nM
11 | [2H]C1([2H])CN2C[C@H](F)C[C@]2(COc2nc(N3C[C@H]4C[C@@H]3CO4)c3cc(C(F)(F)F)c(-c4ccc(F)c5sc(N)c(C#N)c45)c(F)c3n2)C1 [Compound 567] | – | – | – | – | – | – | – | – | – | – | 100 to 1000 nM | 100 to 1000 nM | 100 to 1000 nM | < 100 nM | < 100 nM | 100 to 1000 nM
12 | CCN(c1nc(OC[C@@]23CCCN2C[C@H](F)C3)nc2c(F)c(-c3ccc(F)c4sc(N)c(C#N)c34)c(C(F)(F)F)cc12)[C@H]1CCN(C(=O)N2C[C@@H]3C[C@H]2CO3)C1 (atropisomer, axis not shown) [Compound 654] | – | – | – | – | – | – | – | – | – | – | < 100 nM | < 100 nM | < 100 nM | < 100 nM | < 100 nM | < 100 nM

The next lines start with the values.

Row | IC50 ([1]; KRAS WT-GppNHp/RAF1 RBD HTRF) | IC50 ([2]; KRAS G12V-GppNHp/RAF1 RBD HTRF) | IC50 ([3]; KRAS G12D-GppNHp/RAF1 RBD HTRF) | IC50 (GP2d cells (KRAS G12D)) | IC50 (SW620 cells (KRAS G12V)) | IC50 ([4]; KRAS G12R-GppNHp/RAF1 RBD HTRF) | IC50 [1, 5] | IC50 [2, 6] | IC50 [3, 7] | IC50 [4, 8] | IC50 [1, 9] | IC50 [2, 10] | IC50 [3, 11] | IC50 (GP2d cells (KRAS G12D); class symbols) | IC50 (SW620 cells (KRAS G12V); class symbols) | IC50 [4, 12] | Compound
13 | 100 to 1000 nM | 100 to 1000 nM | 100 to 1000 nM | 100 to 1000 nM | 100 to 1000 nM | 100 to 1000 nM | – | – | – | – | – | – | – | – | – | – | N#Cc1c(N)sc2c(F)ccc(-c3c(C(F)(F)F)cc4c(N5CCn6cnnc6C5)nc(OC[C@@]56CCCN5C[C@H](F)C6)nc4c3F)c12 [Compound 294]
14 | – | – | – | – | – | – | – | – | – | – | < 100 nM | < 100 nM | < 100 nM | < 100 nM | < 100 nM | < 100 nM | CCN(c1nc(OCC23CCCN2CC(F)C3)nc2c(F)c(-c3ccc(F)c4sc(N)c(C#N)c34)c(C(F)(F)F)cc12)C1CCN(C(=O)c2ccccn2)C1 (stereo not drawn) [Compound 737]
15 | – | – | – | – | – | – | – | – | – | – | 100 to 1000 nM | 100 to 1000 nM | 100 to 1000 nM | < 100 nM | < 100 nM | 100 to 1000 nM | CCC(=O)N1C[C@@H](N(CC)c2nc(OC[C@@]34CCCN3C[C@H](F)C4)nc3c(F)c(-c4ccc(F)c5sc(N)c(C#N)c45)c(C(F)(F)F)cc23)C[C@H]1COC (atropisomer, axis not shown) [Compound 649]
16 | 1000 to 10000 nM | 1000 to 10000 nM | 1000 to 10000 nM | 100 to 1000 nM | 100 to 1000 nM | 1000 to 10000 nM | – | – | – | – | – | – | – | – | – | – | C[C@@H]1[C@H](N(C)c2nc(OC[C@@]34CCCN3C[C@H](F)C4)nc3c(F)c(-c4ccc(F)c5sc(N)c(C#N)c45)c(Cl)cc23)CCN1C(=O)C(C)(C)F [Compound 421]
17 | – | – | – | – | – | – | – | – | – | – | 100 to 1000 nM | 100 to 1000 nM | 100 to 1000 nM | < 100 nM | < 100 nM | 100 to 1000 nM | CCN(c1nc(OC[C@@]23CCCN2C[C@H](F)C3)nc2c(F)c(-c3ccc(F)c4sc(N)c(C#N)c34)c(C(F)(F)F)cc12)[C@H]1C[C@@H](COC)N(C(=O)C2CC2)C1 (atropisomer, axis not shown) [Compound 650]
18 | 100 to 1000 nM | 1000 to 10000 nM | 100 to 1000 nM | 100 to 1000 nM | > 1000 nM | 1000 to 10000 nM | – | – | – | – | – | – | – | – | – | – | N#Cc1c(N)sc2c(F)ccc(-c3c(C(F)(F)F)cc4c(N5CC6C(=O)NC(=O)C6C5)nc(OC[C@@]56CCCN5C[C@H](F)C6)nc4c3F)c12 (stereo partly drawn) [Compound 308]
